Source: patent US20250195490A1, “ALPHA-METHYLENE AND AMINOMETHYL LACTONES AND LACTAMS FOR TREATMENT OF CLOSTRIDIOIDES DIFFICILE INFECTION (CDI)” (Purdue Research Foundation, priority 2022, published 2025)
Converted amounts (≈) assume the structure as drawn. Where two headings read alike, the source gives them in different places.

How the values were obtained:
[1] = test system: hypervirulent Clostridioides difficile strains; assay: MIC against hypervirulent Clostridioides difficile strains; type: cell-based
Description: (§1) The antibacterial activity of compounds 48, 50, 51, 61 and 85 against a panel of Clostridioides difficile strains was evaluated. A bacterial solution equivalent to 0.5 McFarland standard was prepared and diluted in brain heart infusion broth supplemented with hemin and vitamin K. Compounds and control drugs were added in the first row of 96-well plates and serially diluted with media containing bacteria (to achieve a concentration gradient ranging from 128 to 1 μg/mL). Plates were then incubated anaerobically at […] for 48 hours.

[2] = test system: clinically important Clostridioides difficile strains; assay: MIC against clinically important Clostridioides difficile strains; type: cell-based; settings: Clostridioides difficile, read-out: MIC
Description: as §1

L. gasseri = assay: MIC against human normal gut microbiota: L. gasseri; type: cell-based, Lactobacillus gasseri; settings: Lactobacillus gasseri; L. gasseri HM 407; read-out: MIC
Text: (§2) The activity of the selected lactones against the human gut microbiota was also examined. Microbiota interfere with C. difficile's ability to colonize the gastrointestinal tract and subsequently cause infection. Many antibiotics inhibit/kill the endogenous microflora, which permits enhanced colonization by C. difficile and infection. Three different bacterial species that are present in the gut microflora were used in this experiment; Bifidobacterium (anaerobic Gram-positive bacteria), Bacteroides (anaerobic Gram-negative bacteria) and Lactobacillus (microaerophilic Gram-positive bacteria). Ideal compounds/drugs are those with selective antibacterial activity against C. difficile so as to protect the indigenous microflora present in the GI tract from being damaged/killed (which will exacerbate infections caused by C. difficile).
(§3) Bifidobacterium and Bacteroides were first grown for 48 hours at 37° C., anaerobically, using brain heart infusion supplemented (BHIS) agar (brain heart infusion agar supplemented with hemin, vitamin K and L-cysteine). Lactobacillus was cultivated on MRS agar and incubated in the presence of 5% CO2 for 48 hours at 37° C. Each bacterium was suspended in phosphate-buffered saline (PBS) to achieve 0.5 McFarland standard and subsequently diluted in brain heart infusion supplemented broth (for Bifidobacterium and Bacteroides) or in MRS broth (for Lactobacillus) to achieve a bacterial inoculum of approximately 5×10^5 CFU/mL. Bacteria were then seeded in 96-well plates containing serial dilutions of the compounds and incubated for 48 hours. MICs reported in Table 4 are the minimum concentration of compound/control drug that inhibited the visual growth of bacteria.

L. casei = assay: MIC against human normal gut microbiota: L. casei; type: cell-based, Lactobacillus casei; settings: Lacticaseibacillus casei; L. casei HM 334; read-out: MIC
Text: as §2, §3

L. reuteri = assay: MIC against human normal gut microbiota: L. reuteri; type: cell-based, Lactobacillus reuteri; settings: Limosilactobacillus reuteri; L. reuteri HM 120; read-out: MIC
Text: as §2, §3

L. crispatus = assay: MIC against human normal gut microbiota: L. crispatus; type: cell-based, Lactobacillus crispatus; settings: Lactobacillus crispatus, read-out: MIC
Text: as §2, §3

Ba. fragilis = assay: MIC against human normal gut microbiota: Bacteroides fragilis; type: cell-based
Text: as §2, §3

Ba. dorsei = assay: MIC against human normal gut microbiota: Bacteroides dorsei; type: cell-based
Text: as §2, §3

Bi. breve = assay: MIC against human normal gut microbiota: Bifidobacterium breve; type: cell-based; settings: Bifidobacterium breve; Bi. breve HM 856; read-out: MIC
Text: as §2, §3

Bi. longum = assay: MIC against human normal gut microbiota: Bifidobacterium longum; type: cell-based; settings: Bifidobacterium longum; Bi. longum HM 848; read-out: MIC
Text: as §2, §3

Clostridioides difficile [3] = settings: cited from earlier work
Clostridioides difficile [4] = assay: MIC by broth microdilution against Clostridioides difficile (Table 1); type: cell-based; settings: Clostridioides difficile, BAA1870; anaerobic, 48 hours; strain BAA-1870; read-out: MIC Clostridioides difficile
Description: Method: The minimum inhibitory concentration (MIC) of the compounds and control drugs, linezolid (antibiotic), vancomycin (antibiotic), 5-fluorocytosine (5-FC, antifungal drug), and fluconazole (antifungal drug) was determined using the broth microdilution method according to the guidelines outlined by the Clinical and Laboratory Standards Institute (CLSI) against clinically relevant bacterial (methicillin-resistant Staphylococcus aureus (MRSA), vancomycin-resistant Enterococcus faecalis (VRE), vancomycin-resistant Enterococcus faecium (VRE), Clostridioides difficile and Escherichia coli) and fungal (Candida albicans) strains. A solution equivalent to 0.5 McFarland standard was prepared from each strain and diluted in cation-adjusted Mueller-Hinton broth (for S. aureus and E. coli), tryptone soy broth (for E. faecalis), or brain heart infusion broth (for E. faecium) to achieve a bacterial inoculum of about 5×10^5 CFU/mL. C. difficile strains were cultured in brain heart infusion broth supplemented with hemin and vitamin K. C. albicans was diluted in RPMI medium supplemented with 3-(N-morpholino) propanesulfonic acid to achieve a fungal concentration of about 1.5×10^3 CFU/mL. Compounds and control drugs were added in the first row of the 96-well plates and diluted with media containing bacteria (to achieve a concentration gradient ranging from 128 to 1 μg/mL). For MRSA, VRE, and E. coli strains, plates were then incubated aerobically at 37° C. for at least 18 hours. C. albicans was incubated aerobically at 37° C. for 24 hours. Plates containing C. difficile were incubated anaerobically at […] for 48 hours.

normal gut microflora = assay: Activity against normal human gut microflora (panel statement); type: cell-based
Text: as §2
Bifidobacterium and Bacteroides were first grown for 48 hours at 37° C., anaerobically, using brain heart infusion supplemented (BHIS) agar (brain heart infusion agar supplemented with hemin, vitamin K and L-cysteine). Lactobacillus was cultivated on MRS agar and incubated in the presence of 5% CO2 for 48 hours at 37° C. […]

[5] = Clostridioides difficile, CD strain 81
[6] = Clostridioides difficile, CD strain 82
[7] = Clostridioides difficile, CD strain 83
[8] = Clostridioides difficile, CD strain 85
[9] = Clostridioides difficile, CD strain 86
[10] = Clostridioides difficile, CD strain 87
[11] = Clostridioides difficile, CD strain 90
[12] = Clostridioides difficile, CD strain 49279
[13] = Clostridioides difficile, CD strain 49287
[14] = Clostridioides difficile, CD strain 49291
[15] = Bacteroides fragilis, Ba. fragilis HM 709, read-out: MIC
[16] = Bacteroides, Ba. dorsei HM 29, read-out: MIC

Row | SMILES | MIC [1, 5] [µg/mL] | MIC [1, 6] [µg/mL] | MIC [1, 7] [µg/mL] | MIC [1, 8] [µg/mL] | MIC [1, 9] [µg/mL] | MIC [1, 10] [µg/mL] | MIC [1, 11] [µg/mL] | MIC [1, 12] [µg/mL] | MIC [1, 13] [µg/mL] | MIC [1, 14] [µg/mL] | MIC ([2]; CD strain 16) [µg/mL] | MIC ([2]; CD strain 18) [µg/mL] | MIC ([2]; CD strain 19) [µg/mL] | MIC ([2]; CD strain 1801) [µg/mL] | MIC ([2]; CD strain 43255) [µg/mL] | MIC ([2]; CD strain P6) [µg/mL] | MIC ([2]; CD strain P7) [µg/mL] | MIC ([2]; CD strain P13) [µg/mL] | MIC ([2]; CD strain P19) [µg/mL] | MIC (L. gasseri) [µg/mL] | further results
1 | CCc1c(Cl)c(O)c(Cl)c(O)c1C(=O)O[C@H]1[C@H](O)[C@H](OC)[C@H](OC/C2=C\C=C\C[C@H](O)/C(C)=C/[C@H](CC)[C@@H](O[C@@H]3OC(C)(C)[C@@H](OC(=O)C(C)C)[C@H](O)[C@@H]3O)/C(C)=C/C(C)=C/C[C@@H]([C@@H](C)O)OC2=O)O[C@@H]1C [Fidaxomicin, fidaxomicin, reference compound] | 0.03 (≈ 0.0284 µM) | 0.3 (≈ 0.284 µM) | 0.015 (≈ 0.0142 µM) | 0.03 (≈ 0.0284 µM) | 0.06 (≈ 0.0567 µM) | 0.015 (≈ 0.0142 µM) | ≤ 0.007 | ≤ 0.007 | ≤ 0.007 | ≤ 0.007 | 0.015 (≈ 0.0142 µM) | ≤ 0.007 | 0.015 (≈ 0.0142 µM) | 0.015 (≈ 0.0142 µM) | 0.03 (≈ 0.0284 µM) | ≤ 0.007 | ≤ 0.007 | ≤ 0.007 | 0.03 (≈ 0.0284 µM) | 1 (≈ 0.945 µM) | MIC ([1]; CD strain 84): 0/03; MIC (L. casei): 2 µg/mL (≈ 1.89 µM); MIC (L. reuteri): 128 µg/mL (≈ 121 µM); MIC (L. crispatus; L. crispatus HM 375): ≤ 1 µg/mL; MIC (L. crispatus; L. crispatus HM 421): 2 µg/mL (≈ 1.89 µM); MIC (Ba. fragilis; Ba. fragilis HM 710): >128 µg/mL; MIC (Ba. fragilis; Ba. fragilis HM 711): >128 µg/mL; MIC (Ba. fragilis; Ba. fragilis HM 714): >128 µg/mL; MIC (Ba. fragilis; [15]): > 128 µg/mL; MIC (Ba. dorsei; Ba. dorsei HM 717): >128 µg/mL; MIC (Ba. dorsei; [16]): > 128 µg/mL; MIC (Bi. breve): > 128 µg/mL; MIC (Bi. longum): 32 µg/mL (≈ 30.2 µM); recurrence rate (Clostridioides difficile [3]; infections involving the hypervirulent strains): 24%; recurrence rate (Clostridioides difficile [3]; patients treated for an episode of recurrent C. difficile-associated diarrhea): 20%
2 | Cc1ncc([N+](=O)[O-])n1CCO [Metronidazole, reference compound] | 0.125 (≈ 0.73 µM) | 0.25 (≈ 1.46 µM) | 0.25 (≈ 1.46 µM) | 0.25 (≈ 1.46 µM) | 0.125 (≈ 0.73 µM) | 0.125 (≈ 0.73 µM) | 0.125 (≈ 0.73 µM) | 0.125 (≈ 0.73 µM) | ≤ 0.06 | 0.125 (≈ 0.73 µM) | 0.25 (≈ 1.46 µM) | ≤ 0.06 | 0.125 (≈ 0.73 µM) | 0.125 (≈ 0.73 µM) | 0.125 (≈ 0.73 µM) | ≤ 0.06 | 0.25 (≈ 1.46 µM) | ≤ 0.06 | 0.25 (≈ 1.46 µM) | > 128 | MIC (Clostridioides difficile [4]): 0.25 µg/mL (≈ 1.46 µM); MIC ([1]; Clostridioides difficile, CD strain 84): 0.25 µg/mL (≈ 1.46 µM); MIC (L. casei): > 128 µg/mL; MIC (L. reuteri): > 128 µg/mL; MIC (L. crispatus; L. crispatus HM 375): > 128 µg/mL; MIC (L. crispatus; L. crispatus HM 421): > 128 µg/mL; MIC (Ba. fragilis; Ba. fragilis HM 710): ≤1 µg/mL; MIC (Ba. fragilis; Ba. fragilis HM 711): ≤1 µg/mL; MIC (Ba. fragilis; Ba. fragilis HM 714): ≤1 µg/mL; MIC (Ba. fragilis; [15]): ≤ 1 µg/mL; MIC (Ba. dorsei; Ba. dorsei HM 717): ≤1 µg/mL; MIC (Ba. dorsei; [16]): ≤ 1 µg/mL; MIC (Bi. breve): ≤ 1 µg/mL; MIC (Bi. longum): 64 µg/mL (≈ 374 µM); inhibition of bacteria of the normal gut microflora (normal gut microflora): inhibited growth of species of Bacteroides and Bifidobacterium
